Read-outs that look alike come from different tables or passages of the source.
Legend:
[1] = target: T1, recombinant human PAI-1 (Homo sapiens, UniProt P05121); assay: Test Example 2: Human PAI-1 Inhibitory Activity (pH 7.4 HEPES buffer, 10 minutes incubation with two-chain tPA); type: biochemical; design: purchased Molecular Innovations, Inc; details: read-out: Inhibition Rate of PAI-1 Activity (%)
Protocol: 0.1 M HEPES, 0.1 M NaCl. 1 mM EDTA. 0.1 % Polyethylene glycol 8,000 (Hampton Research Corporation),
2 mM Dimethyldecylphoshine oxide [Apo-10] (Fluka Corporation)

[2] = target: T2, recombinant rat PAI-1 (Rattus norvegicus, UniProt P20961); assay: biochemical; details: read-out: Inhibition Rate of PAI-1 Activity (%)
T2 sequence (P20961 24-402): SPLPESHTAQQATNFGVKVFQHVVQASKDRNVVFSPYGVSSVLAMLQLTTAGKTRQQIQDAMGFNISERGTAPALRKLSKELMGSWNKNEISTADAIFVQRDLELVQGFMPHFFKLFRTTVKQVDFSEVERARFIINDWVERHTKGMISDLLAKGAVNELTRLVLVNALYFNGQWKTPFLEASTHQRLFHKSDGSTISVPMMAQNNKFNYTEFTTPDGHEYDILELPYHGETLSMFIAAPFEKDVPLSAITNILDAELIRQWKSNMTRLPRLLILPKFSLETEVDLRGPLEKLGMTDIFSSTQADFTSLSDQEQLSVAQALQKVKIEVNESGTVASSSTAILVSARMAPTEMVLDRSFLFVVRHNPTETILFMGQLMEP

[3] = target: T1, recombinant human PAI-1; assay: biochemical
[4] = read-out: Inhibition Rate of PAI-1 Activity (%)
[5] = read-out: Inhibition Rate of PAI-1 Activity (%), Compound Concentration 5µM
[6] = read-out: Inhibition Rate of PAI-1 Activity (%), Compound Concentration 10µM
[7] = read-out: Inhibition Rate of PAI Activity (%)

T1 sequence (P05121 24-402): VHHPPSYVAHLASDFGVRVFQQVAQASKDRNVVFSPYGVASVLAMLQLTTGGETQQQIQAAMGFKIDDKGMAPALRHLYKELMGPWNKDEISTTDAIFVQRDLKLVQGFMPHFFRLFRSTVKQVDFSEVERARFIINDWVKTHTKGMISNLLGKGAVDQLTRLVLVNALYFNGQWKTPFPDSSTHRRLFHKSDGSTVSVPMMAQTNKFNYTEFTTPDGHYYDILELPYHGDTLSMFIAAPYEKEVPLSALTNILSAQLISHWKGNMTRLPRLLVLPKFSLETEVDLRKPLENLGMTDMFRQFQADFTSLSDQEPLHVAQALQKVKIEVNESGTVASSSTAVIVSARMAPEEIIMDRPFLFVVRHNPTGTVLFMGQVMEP

| inhibition at 0.3 µM [2] | inhibition at 1 µM [2] | inhibition at 3 µM [2] | inhibition at 10 µM [2] | inhibition at 5 µM [3, 4] | inhibition at 10 µM [3, 4] | inhibition at 25 µM [3, 4] | SMILES | inhibition at 0.1 µM [1] | inhibition at 0.3 µM [1] | inhibition at 1 µM [1] | inhibition at 3 µM [1] | further results |
| --- | --- | --- | --- | --- | --- | --- | --- | --- | --- | --- | --- | --- |
| 2% | 12% | 43% | 98% | 56% | 81% | 91% | CC(C)(Oc1cc(-c2ccc(OC(F)(F)F)cc2)ccc1OCCCCc1ccccc1)C(=O)O [Compound 116] | 0% | 0% | 15% | 89% | – |
| 0% | 0% | 51% | 83% | 42% | 83% | 97% | CC(C)(C)c1ccc(COc2c(CCC(=O)O)cccc2-c2ccc(OC(F)(F)F)cc2)cc1 [Compound 88] | 0% | 5% | 25% | 97% | – |
| 8% | 40% | 73% | 67% | 78% | 95% | – | CC(C)(C)c1ccc(CN(C(=O)C(=O)O)c2ccc(OCc3ccccc3)c(-c3ccc(OC(F)(F)F)cc3)c2)cc1 [Compound 212] | 5% | 15% | 64% | 98% | – |
| – | – | – | – | – | – | – | CC(C)(Oc1c(Oc2ccc(C(C)(C)C)cc2)cccc1-c1ccc(OC(F)(F)F)cc1)C(=O)O [Compound 251] | 0% | 11% | 34% | 83% | inhibition at 5 µM [3, 5]: 62%; inhibition at 10 µM [3, 6]: 63% |
| – | – | – | – | 33% | 75% | 87% | CC(C)(C)c1ccc(CN(C(=O)C(=O)O)c2ccc(-c3ccc(OC(F)(F)F)cc3)cc2C(F)(F)F)cc1 [Compound 150] | – | – | – | – | – |
| – | – | – | – | 44% | 81% | 96% | CC(C)(C)c1ccc(COc2c(/C=C/C(=O)O)cccc2-c2ccc(OC(F)(F)F)cc2)cc1 [Compound 87] | – | – | – | – | – |
| – | – | – | – | 64% | 89% | 92% | CC(C)(C)c1ccc(CN(C(=O)C(=O)O)c2ccc(-c3cccc(OC(F)(F)F)c3)cc2)cc1 [Compound 200] | – | – | – | – | – |
| – | – | – | – | 13% | 27% | – | O=C(O)C(=O)N(CCc1ccccc1)c1ccc(-c2ccc(OC(F)(F)F)cc2)cc1 [Compound 223] | – | – | – | – | – |
| – | – | – | – | 58% | 85% | > 99% | CC(C)(C)c1ccc(-c2ccc(N(Cc3ccc(Cl)cc3)C(=O)C(=O)O)cc2)cc1 [Compound 204] | – | – | – | – | – |
| – | – | – | – | 93% | 99% | – | O=C(O)C(=O)N(CCCCc1ccccc1)c1ccc(N2CCCCC2)c(-c2ccc(OC(F)(F)F)cc2)c1 [Compound 247] | – | – | – | – | – |
| – | – | – | – | – | – | – | O=C(O)CCc1cc(-c2ccc(OC(F)(F)F)cc2)ccc1OCc1ccc(F)cc1 [Compound 20] | – | – | – | – | inhibition at 10 µM [3, 7]: 10%; inhibition at 25 µM [3, 7]: 53% |

| SMILES | inhibition at 0.3 µM [2] | inhibition at 1 µM [2] | inhibition at 3 µM [2] | inhibition at 10 µM [2] | inhibition at 5 µM [3, 4] | inhibition at 10 µM [3, 4] | inhibition at 25 µM [3, 4] | inhibition at 0.1 µM [1] | inhibition at 0.3 µM [1] | inhibition at 1 µM [1] | inhibition at 3 µM [1] | further results |
| --- | --- | --- | --- | --- | --- | --- | --- | --- | --- | --- | --- | --- |
| CC(C)(C)c1ccc(COc2ccc(-c3ccc(OC(F)(F)F)cc3)cc2CC(=O)O)cc1 [Compound 9] | 0% | 15% | 71% | 96% | – | – | – | 0% | 6% | 25% | 98% | inhibition at 5 µM ([3]; read-out: Inhibition Rate of PAI Activity (%), Compound Concentration 5µM): 90%; inhibition at 10 µM ([3]; read-out: Inhibition Rate of PAI Activity (%), Compound Concentration 10µM): 99% |
| CCC(CC)Oc1ccc(N(CCCc2ccccc2)C(=O)C(=O)O)cc1-c1ccc(OC(F)(F)F)cc1 [Compound 230] | 0% | 13% | 83% | 94% | – | – | – | 0% | 8% | 27% | 96% | inhibition at 5 µM [3, 5]: 75%; inhibition at 10 µM [3, 6]: 95%; inhibition at 25 µM ([3]; read-out: Inhibition Rate of PAI-1 Activity (%), Compound Concentration 25µM): 92% |

Source: patent EP2272817A1, “PAI-1 INHIBITOR” (Institute of Medicinal Molecular Design, Inc., priority 2008, dated 2009)
